Experimental data as given in US20240228572A1 (i2o Therapeutics, Inc., priority 2020, published 2024).
*1 amine or outer side, *2 acyl side, *3 side chain or, on linkers, in order; H or OH if unused. Where a SMILES comes first, the peptide text is derived from it. Side-chain parts run from the residue outwards. [ ]: non-standard residue; d: D form. The star is where a group is joined. C20 diacid = O=C(O)CCCCCCCCCCCCCCCCCCC(=O)*; γGlu = O=C(O)[C@H](CCC(=O)[*:2])N[*:1]; AEEA = NCCOCCOCC(=O)O; Aib = CC(C)(N)C(=O)O

Legend:
rat GCGR = target: T1, rat GCGR (Rattus norvegicus, UniProt P30082); assay: cAMP accumulation assay, CHO-K1 cells expressing rat GCGR; assay type: cell-based
T1 construct: A cDNA fragment encoding the full-length open reading frame of the rat GCGR; expressed in transfected cells; host or cells: CHO-K1, pcDNA3.1+, Lipofectamine 2000
T1 sequence (P30082 27-485): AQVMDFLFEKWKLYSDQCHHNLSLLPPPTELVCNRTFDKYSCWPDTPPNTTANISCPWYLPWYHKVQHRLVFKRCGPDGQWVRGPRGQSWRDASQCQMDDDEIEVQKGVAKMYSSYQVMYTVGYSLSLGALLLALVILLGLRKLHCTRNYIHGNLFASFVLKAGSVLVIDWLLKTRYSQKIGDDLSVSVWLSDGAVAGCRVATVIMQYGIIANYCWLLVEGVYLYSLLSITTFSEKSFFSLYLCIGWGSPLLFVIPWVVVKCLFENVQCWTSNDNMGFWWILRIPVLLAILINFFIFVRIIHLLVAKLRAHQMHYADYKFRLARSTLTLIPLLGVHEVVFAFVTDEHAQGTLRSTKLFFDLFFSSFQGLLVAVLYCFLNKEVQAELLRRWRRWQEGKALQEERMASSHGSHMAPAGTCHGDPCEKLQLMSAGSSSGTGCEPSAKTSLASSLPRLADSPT
Description: In the presence of the non-specific cAMP/cGMP phosphodiesterase inhibitor, 3-isobutyl-1-methylxanthine (IBMX), accumulating cAMP can be measured in vitro using common detection methods. Thus, it is possible to estimate an in vitro potency (pEC50) for peptides activating each of these receptors using fit dose-response curves for cAMP accumulation.
A cDNA fragment encoding the full-length open reading frame of the cynomolgus monkey GLP-1R (Genebank accession #XM_028847603 was cloned into pcDNA3.1+ for expression in CHO-K1 cells. A cDNA fragment encoding the full-length open reading frame of the human GCGR (Genebank accession #NM_000160 was cloned into pcDNA3.1+ for expression in CHO-K1 cells. A cDNA fragment encoding the full-length open reading frame of the rat GCGR (Genebank accession #NM_12091 was cloned into pcDNA3.1+ for expression in CHO-K1 cells. A cDNA fragment encoding the full-length open reading frame of the cynomolgus monkey GCGR (Genebank accession #XM_005585255 was cloned into pcDNA3.1+ for expression in CHO-K1 cells. […]
Peptides were serially diluted 4-fold in assay buffer to final concentrations ranging from 1×10^−9 M to 9.5×10^−16 M. Two assay controls consisting of 50 mcM forskolin (cAMP system maximum) or assay buffer only (cAMP system minimum) were also prepared. […] Plates were read on an Envision fluorescent plate reader (PerkinElmer). […]

serum albumin = serum albumin (Rattus norvegicus, UniProt P02770); assay: Fraction unbound (fu) in plasma by surface plasmon resonance, rat; assay type: in vitro ADME; conditions: SPR binding to serum albumin
serum albumin, sequence (P02770 25-608): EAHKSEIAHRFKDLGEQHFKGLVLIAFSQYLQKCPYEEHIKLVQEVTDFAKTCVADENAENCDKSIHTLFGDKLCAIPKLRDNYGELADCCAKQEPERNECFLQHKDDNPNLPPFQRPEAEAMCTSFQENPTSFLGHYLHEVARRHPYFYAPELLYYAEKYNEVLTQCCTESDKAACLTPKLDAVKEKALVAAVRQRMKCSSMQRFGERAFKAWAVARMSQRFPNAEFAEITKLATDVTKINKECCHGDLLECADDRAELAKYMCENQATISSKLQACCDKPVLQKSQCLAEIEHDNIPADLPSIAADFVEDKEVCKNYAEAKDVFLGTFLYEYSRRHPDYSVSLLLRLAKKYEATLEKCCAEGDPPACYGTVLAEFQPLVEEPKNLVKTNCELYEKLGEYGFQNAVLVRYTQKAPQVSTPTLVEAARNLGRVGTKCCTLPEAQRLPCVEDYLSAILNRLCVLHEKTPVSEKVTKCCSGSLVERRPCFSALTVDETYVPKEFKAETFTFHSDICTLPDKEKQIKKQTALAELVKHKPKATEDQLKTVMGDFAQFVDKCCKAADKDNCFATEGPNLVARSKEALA
Protocol: Conventional methods of measuring plasma protein binding, such as equilibrium dialysis, ultrafiltration and ultracentrifugation, are not reliable with peptides because of their tendency to adsorb to the surface of plastic tubing, dialysis membranes and molecular weight cut-off filters. As a result, the extent to which acylated peptides bind to serum albumin was evaluated using surface plasmon resonance (SPR).

[1] = Stability in subcutaneous (SC) tissue homogenates, monkey; assay type: in vitro ADME; conditions: subcutaneous (SC) tissue homogenate, pH 7.4, read-out: (H)SC tissue stability t½ (converted)
Protocol: (§1) In vitro incubations in subcutaneous (SC) tissue homogenates were used to characterize the ability of peptides to resist pre-systemic degradation by proteases and peptidases after SC administration. In vivo nonclinical studies have shown that peptidase activity in the SC space can limit the bioavailability of a peptide after SC administration. Peptides with high SC bioavailability are stable in this assay, while peptides with low SC bioavailability are unstable in this assay.
(§2) Human SC tissue was homogenized in cold 25 mM HEPES buffer (pH 7.4, 10-fold volume based on sample weight), and then filtered through a double layer of cheesecloth. The filtrates were aliquoted, flash frozen on a methanol/dry ice bath and stored at −80° C. The protein concentration of each pooled batch was determined using the BCA protein assay. Thawed stocks of human SC tissue homogenates were diluted to 1.0 mg protein/mL in 25 mM HEPES buffer (pH 7.4) and aliquoted into a 96-well plate. The diluted SC homogenates were pre-warmed for 10 minutes at 37° C. Reactions were initiated by the addition of test peptide (10 mcM final concentration) also dissolved in 25 mM HEPES buffer (pH 7.4). Reactions were maintained at 37° C. in a shaking water bath. […] Samples were analyzed by UPLC-MS/MS.

[2] = target: T2, human GLP-1 receptor (GLP-1R) (Homo sapiens, UniProt P43220); assay: cAMP accumulation assay, CHO-K1 cells stably expressing human GLP-1R; assay type: cell-based
T2 construct: expressed in transfected cells
T2 sequence (P43220 24-463): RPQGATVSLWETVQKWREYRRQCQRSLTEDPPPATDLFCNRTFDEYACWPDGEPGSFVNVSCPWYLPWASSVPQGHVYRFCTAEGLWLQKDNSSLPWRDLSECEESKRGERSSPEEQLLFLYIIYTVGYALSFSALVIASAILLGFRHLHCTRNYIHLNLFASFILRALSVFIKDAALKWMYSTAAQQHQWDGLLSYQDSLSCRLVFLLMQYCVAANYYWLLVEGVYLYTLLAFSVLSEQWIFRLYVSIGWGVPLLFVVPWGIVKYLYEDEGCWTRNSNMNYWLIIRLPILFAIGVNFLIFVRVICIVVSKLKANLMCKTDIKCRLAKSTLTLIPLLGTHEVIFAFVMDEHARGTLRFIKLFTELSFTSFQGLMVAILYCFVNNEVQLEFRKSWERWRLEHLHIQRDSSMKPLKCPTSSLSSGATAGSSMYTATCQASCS

[3] = Stability in human subcutaneous (SC) tissue homogenates; assay type: in vitro ADME; conditions: subcutaneous (SC) tissue homogenate, 10 mcM peptide, 1.0 mg protein/mL, 37° C., pH 7.4, read-out: (H)SC tissue stability t½ (converted)
Protocol: as §1, §2

CC(C)C[C@H](NC(=O)[C@H](Cc1ccc(O)cc1)NC(=O)[C@H](CCCCN)NC(=O)[C@H](CO)NC(=O)[C@H](Cc1ccc(O)cc1)NC(=O)[C@H](CC(=O)O)NC(=O)[C@H](CO)NC(=O)[C@@H](NC(=O)[C@H](Cc1ccccc1)NC(=O)[C@@H](NC(=O)CNC(=O)[C@H](Cc1c[nH]cn1)NC(=O)[C@H](CO)NC(=O)[C@@H](N)Cc1ccc(O)cc1)[C@@H](C)O)[C@@H](C)O)C(=O)N[C@@H](CC(=O)O)C(=O)NC(C)(C)C(=O)N[C@@H](CCCCN)C(=O)N[C@@H](Cc1ccc(O)cc1)C(=O)N[C@@H](C)C(=O)N[C@@H](CCC(N)=O)C(=O)N[C@@H](CCCCNC(=O)CC[C@H](NC(=O)CC[C@H](NC(=O)COCCOCCNC(=O)CCCCCCCCCCCCCCCCCCC(=O)O)C(=O)O)C(=O)O)C(=O)N[C@@H](Cc1ccccc1)C(=O)N[C@H](C(=O)NC(C)(C)C(=O)N[C@@H](Cc1c[nH]c2ccccc12)C(=O)N[C@@H](CC(C)C)C(=O)N[C@@H](CCC(=O)O)C(=O)N[C@@H](CC(=O)O)C(=O)N[C@@H](CCC(=O)O)C(=O)N1CCC[C@H]1C(=O)N[C@@H](CO)C(=O)N[C@@H](CO)C(=O)NCC(=O)N[C@@H](C)C(=O)N1CCC[C@H]1C(=O)N1CCC[C@H]1C(=O)N1CCC[C@H]1C(=O)N[C@@H](CO)C(=O)O)C(C)C [Compound A6] (H-YSHGTFTSDYSKYLD[Aib]KYAQK([γGlu-γGlu-AEEA-C20 diacid])FV[Aib]WLEDEPSSGAPPPS-OH; N-terminus assumed)
EC50 (rat GCGR): 0.0501 nM | fraction unbound (serum albumin): 0.0083 | half-life at 10 mcM [1]: 5 h | EC50 [2]: > 100 nM | Activity (as EC50 values) hGLP1R ([2]; human GLP-1 receptor, Table 11): <7 | half-life at 10 mcM [3]: 10.6 h
